Results on seven compounds are retold here after patent US8466289B2, “Heterocyclic sulfonamide derivatives” (Novartis AG, priority 2009, dated 2013).

In assay [1] the test system is BRAF-MEK-ERK cascade (activated BRAF (V599E), unactive MEK1, unactive MAP Kinase 2/ERK2). In words: BRAF-MEK-ERK enzymatic cascade assay (TR-FRET). Type of assay: biochemical, human. Conditions: compounds screened at 10 μM, 45 minutes pre-incubation with enzymes, 100 μM ATP. An excerpt:
A BRAF-MEK-ERK cascade assay is used to evaluate the effects of the compounds as inhibitors of the MAP kinase pathway. An enzymatic cascade assay is set up using recombinant human activated BRAF (V599E) kinase (Cat No. 14-557), human full length unactive MEK1 kinase (Cat No. 14-706) and human full length unactive MAP Kinase 2/ERK2 (Cat No. 14-536) enzymes procured from Upstate. TR-FRET (Time resolved fluorescence resonance energy transfer) detection technology is used for the read out. The assay buffer solution contains 50 mM Tris pH 7.5, 10 mM MgCl2, 1 mM DTT, 0.01% Tween 20, 0.1 nM activated BRAF, 2 nM unactive MEK1, 10 nM unactive ERK2, 100 μM ATP and 500 nM long chain biotin-peptide substrate (LCB-FFKNIVTPRTPPP) in a 384 well format. The kinase reaction is stopped after 90 minutes with 10 mM EDTA and Lance detection mix (2 nM Eu-labeled phospho-serine/threonine antibody (Cat. No. AD0176-Perkin Elmer), 20 nM SA-APC (Cat No. CR130-100-Perkin Elmer) is added. The TR-FRET signal (Excitation at 340 nm, Emission at 615 nm and 665 nm) is read with 50 μs delay time on a Victor3 V fluorimeter. The data is calculated using the ratio of readings at 665 nm to 615 nm. The final concentration of DMSO is 2.5% in the assay. Compounds are screened at 10 μM concentration with pre-incubation of the enzymes in the presence of test compound for 45 minutes.
Each individual IC50 is determined using a 10 point dose response curve generated by GraphPad Prism software Version 4 (San Diego, Calif., USA) using non linear regression curve fit for sigmoidal dose response (variable slope).
These assays described above are fully detailed in Han, Shulin, et. al., Bioorganic & Medicinal Chemistry Letters (2005) 15, 5467-5473, and in Yeh, et. al., Clin Cancer Res (2007) 13 (5), 1576-1583.
(§1) The compounds of the above Examples were evaluated as inhibitors of the MAP kinase pathway in a BRAF-MEK-ERK enzymatic cascade assay and in the cell viability assay described above.
Background: Time-resolved FRET reads energy transfer from a long-lived donor to a nearby acceptor.

The test system of a further assay is A375 cells. Briefly: cell viability assay in A375 cells using XTT. Type of assay: cell-based. Conditions: Homo sapiens, A-375, 72 h, XTT read three days after compound addition. As for the experimental part: The cell viability assay in A375 cells is set up in a 96-well plate format using XTT.
XTT is a yellow tetrazolium salt that is cleaved to an orange formazan dye by the mitochondria of metabolically active cells. The procedure allows for rapid determination in a microtitre plate, to give reproducible and sensitive results.
A375 cells are grown in DMEM media containing 10% FBS and 1 mM sodium pyruvate. Cells are trypsinized and seeded at 1000 cells/well. After allowing the cells to adhere overnight, compound is added to the wells at the following final concentrations: 10, 3, 1, 0.3, 0.1, 0.03, 0.01, 0.001, and 0.0001 μM. The assay is set up in triplicates for each concentration. DMSO concentrations are kept at 0.5%/well. Three days after compound addition, the XTT assay is performed. Wells are washed once with PBS. 100 μL of DMEM media without phenol red or FBS is added to each well. A working solution of XTT containing 1 mg/ml XTT and 100 μL of PMS (stock concentration 0.383 mg/ml) per 5 ml is prepared. 50 μL of the working solution of XTT is added to each well. Absorbance of the plate is read at 465 nm using a Spectramax 190 (Molecular Devices). The absorbance from wells with media and XTT alone, but without cells is considered the blank and subtracted from readings from all wells.
Percentage viability is calculated considering the blank subtracted value from wells treated with DMSO alone as 100% viable. GI50 values are calculated using Graphpad Prism, using non-linear regression curve fit for sigmoidal dose response (variable slope).
The cell viability assay is further described in Scudiero, et. al., Cancer Research (1988) 48, 4827-4833; Weislow, et. al., J. Natl. Cancer Institute, (1989) 81, 577-586; and Roehm, et. al., J. Immunol. Methods [1991]142:257-265.
as §1

In general, % inhibition refers to the drop in the measured response relative to a control, in per cent. Lower therefore signals a weak effect. Broadly, the GI50 is the concentration that inhibits growth by half. A higher GI50 goes with lower sensitivity of the cells. On to `Cc1c(Nc2ccc(I)cc2F)c(NS(=O)(=O)C2CCC2)c2n(c1=O)CCO2` [Example 14A, Cyclobutanesulfonic acid [7-(2-fluoro-4-iodo-phenylamino)-6-methyl-5-oxo-2,3-dihydro-5H-oxazolo[3,2-a]pyridin-8-yl]-amide], for which the “% inhibition” value in assay [1] was 100%. Also, halving of growth in the assay with A375 cells (GI50) required 16 nM.

Consider `Cc1c(Nc2ccc(I)cc2F)c(NS(=O)(=O)C2(CCO)CC2)c2n(c1=O)CCO2` [Example 9A, 1-(2-Hydroxy-ethyl)-cyclopropanesulfonic acid [7-(2-fluoro-4-iodo-phenylamino)-6-methyl-5-oxo-2,3-dihydro-5H-oxazolo[3,2-a]pyridin-8-yl]-amide], for which the “% inhibition” value in assay [1] is recorded as 100%. The compound also registered a GI50 with A375 cells of 19 nM.

With `Cc1c(Nc2ccc(I)cc2F)c(NS(=O)(=O)C2CCCC2)c2n(c1=O)CCS2` [Example 24A, Cyclopentanesulfonic acid [7-(2-fluoro-4-iodo-phenylamino)-6-methyl-5-oxo-2,3-dihydro-5H-thiazolo[3,2-a]pyridin-8-yl]-amide], the “% inhibition” value in assay [1] is 100%. The compound further came in with a GI50 in the assay on A375 cells of 192 nM.

As to `Cc1c(Nc2ccc(I)cc2F)c(NS(=O)(=O)C2(CO)CC2)c2n(c1=O)CCO2` [Example 11A, 1-Hydroxymethyl-cyclopropanesulfonic acid [7-(2-fluoro-4-iodo-phenylamino)-6-methyl-5-oxo-2,3-dihydro-5H-oxazolo[3,2-a]pyridin-8-yl]-amide], the “% inhibition” value in assay [1] is reported as 100%. The compound also showed a GI50 with A375 cells of 20 nM.

In the case of `Cc1c(Nc2ccc(I)cc2F)c(NS(=O)(=O)C2CC2CO)c2n(c1=O)CCS2` (centres unmarked) [Example 21A, 2-Hydroxymethyl-cyclopropanesulfonic acid [7-(2-fluoro-4-iodo-phenylamino)-6-methyl-5-oxo-2,3-dihydro-5H-thiazolo[3,2-a]pyridin-8-yl]-amide], the “% inhibition” value in assay [1] is on record as 100%. The GI50 in the assay on A375 cells was determined as 158 nM.

Take `Cc1c(Nc2ccc(I)cc2F)c(NS(=O)(=O)C2(CC(O)CO)CC2)c2n(c1=O)CCO2` (centres unmarked) [Example 10A, 1-(2,3-Dihydroxy-propyl)-cyclopropanesulfonic acid [7-(2-fluoro-4-iodo-phenylamino)-6-methyl-5-oxo-2,3-dihydro-5H-oxazolo[3,2-a]pyridin-8-yl]-amide]: in assay [1], the “% inhibition” value was found to be 100%. Further, in the assay with A375 cells, growth was halved (GI50) at 33 nM.

For the compound `Cc1c(Nc2ccc(I)cc2F)c(NS(=O)(=O)C2CC(C(CO)CO)C2)c2n(c1=O)CCO2` (centres unmarked) [Example 15A, 3-(1,3-dihydroxypropan-2-yl)-N-(7-(2-fluoro-4-iodophenylamino)-6-methyl-5-oxo-3,5-dihydro-2H-oxazolo[3,2-a]pyridin-8-yl)cyclobutane-1-sulfonamide], the “% inhibition” value in assay [1] was found to be 100%. The compound also gave a GI50 with A375 cells of 1530 nM.
